Data taken from US20060094031A1, “Alpha-L-arabinofuranosidase histochemical reporter gene assay” (Stowers Institute for Medical Research, priority 2004, published 2006).
Entries after “also recorded” stand apart in the source; their conditions may differ.

Tests used:
[1] = solubility of the chromogen in water; type: physicochemical; conditions: unhydrolysed chromogen; forms insoluable blue precipitate upon hydrolysis
[2] = test system: β-galactosidase (lacZ) expressed in NIH 3T3 cells; conditions: for color of cells expressing lacZ after staining with the substrate: histochemical staining
Protocol: (§1) FIG. 1 depicts a schematic of the CMV abfA expression vector. […] NIH 3T3 cells were transfected with CMV-abfA and 30 hours later were fixed with 2% formaldehyde, 0.2% glutaraldehyde for 5 minutes and then processed for histochemical detection of abfA expression using a standard protocol for lacZ detection (5), but substituting Z-ara (0.02%) for X-gal. The synthesis for Z-ara is described in Example 3. Just like X-gal, Z-ara is a colorless water-soluable chromogen that forms an insoluable blue precipitate upon hydrolysis. […] Alternative β-galactosidase substrates to X-gal, 6-chloro-3-indolyl-β-D-galactopyranaside (“Red-gal,” Research Organics, Cleveland, Ohio, USA) and 5-bromo-6-chloro-3-indolyl-β-D-galactopyranoside (“Magenta-gal,” BioSynth AG, Switzerland), allow LacZ^+ cells to appear red instead of blue and thus easily distinguishable from Z-ara positive cells.
(§2) To determine whether α-L-arabinofuranosidase and β-galactosidase could be detected both in the same cell, NHI 3T3 cells were co-transfected with CMV-abfA and with proBGN (7), a plasmid encoding the lacZ gene tagged with a nuclear localization signal. […] One day after transfection cells were fixed followed by in situ visualization of β-galactosidase and α-L-arabinofuranosidase activities by incubation with 0.02% Magenta-gal and 0.02% Z-ara, respectively. Imaging was with a Leica DMR microscope mounted with an Optronics Magnafire digital camera.

[3] = target: T1, α-L-arabinofuranosidase (S. lividans abfA gene) expressed in NIH 3T3 cells (Streptomyces lividans, UniProt P53627); assay: histochemical (in situ) detection of abfA expression in transfected mammalian cells with chromogenic substrate; type: cell-based; conditions: for color of cells expressing abfA after staining with the substrate: NIH 3T3 cells transfected with CMV-abfA, fixed 30 hours later, substrate 0.02% in lacZ detection protocol
T1 construct: expressed in transfected cells; host or cells: NIH 3T3 cells transfected with CMV-abfA (pcDNA3 backbone)
T1 sequence (P53627 1-662): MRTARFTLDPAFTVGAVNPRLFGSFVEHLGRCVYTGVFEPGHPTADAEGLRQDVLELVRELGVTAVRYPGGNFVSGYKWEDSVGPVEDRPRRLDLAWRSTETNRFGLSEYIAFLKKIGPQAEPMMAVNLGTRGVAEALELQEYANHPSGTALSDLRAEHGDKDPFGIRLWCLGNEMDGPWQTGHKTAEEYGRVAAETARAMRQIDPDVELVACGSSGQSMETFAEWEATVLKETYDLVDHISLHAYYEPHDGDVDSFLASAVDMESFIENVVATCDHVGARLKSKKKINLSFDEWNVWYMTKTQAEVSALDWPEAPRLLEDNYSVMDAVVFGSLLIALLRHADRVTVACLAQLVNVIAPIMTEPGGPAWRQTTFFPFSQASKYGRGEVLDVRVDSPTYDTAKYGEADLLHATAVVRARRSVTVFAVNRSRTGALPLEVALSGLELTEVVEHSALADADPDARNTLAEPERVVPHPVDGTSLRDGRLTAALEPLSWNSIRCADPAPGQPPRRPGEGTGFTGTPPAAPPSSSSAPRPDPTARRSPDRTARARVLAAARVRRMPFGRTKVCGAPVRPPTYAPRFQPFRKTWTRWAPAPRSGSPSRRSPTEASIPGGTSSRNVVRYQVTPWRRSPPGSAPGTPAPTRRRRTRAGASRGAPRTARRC
Protocol: as §1
One feature of the Z-ara substrate is that the 5-bromo-3-indoloxyl-derived final product has birefringent properties.
as §2

## OC[C@H]1O[C@@H](Oc2c[nH]c3ccc(Br)cc23)C(O)C1O (stereo partly drawn) [Z-ara, 5-bromo-3-indolyl-α-arabinofuranoside]
[1]
  solubility in water: water-soluable
[2]
  color of cells expressing lacZ after staining with the substrate: remain colorless
[3]; NIH 3T3, CMV-abfA, FIG. 2(A)
  subcellular location of staining in abfA-expressing cells: predominantly cytoplasmic
[3]; NIH 3T3, CMV-abfA, polarized light, FIG. 2(B)
  appearance of stained AbfA+ cells under polarized light: distinct yellow birefringence
[3]
  color of cells expressing abfA after staining with the substrate: dark blue
[3]; NIH 3T3 co-transfected with CMV-abfA and proBGN, one day after transfection, 0.02% substrate, FIGS. 2(C), 2(D)
  staining from abfA expression in co-transfected cells (dual detection): blue cytoplasm

## 5-bromo-6-chloro-3-indolyl-β-D-galactopyranoside [Magenta-gal]
[2]
  color of cells expressing lacZ after staining with the substrate: red
[2]; NIH 3T3 co-transfected with CMV-abfA and proBGN (nuclear-localizing β-galactosidase), one day after transfection, 0.02% substrate, FIGS. 2(C), 2(D)
  staining from lacZ expression in co-transfected cells (dual detection): red nucleus

## OC[C@H]1O[C@@H](Oc2c[nH]c3cc(Cl)ccc23)[C@H](O)[C@@H](O)[C@H]1O [Red-gal, 6-chloro-3-indolyl-β-D-galactopyranaside]
[2]
  color of cells expressing lacZ after staining with the substrate: red

## OC[C@H]1O[C@@H](Oc2c[nH]c3ccc(Br)c(Cl)c23)[C@H](O)[C@@H](O)[C@H]1O [X-gal, 5-bromo-4-chloro-3-indolyl-β-D-galactosidase]
[1]
  solubility in water: water-soluable
[3]
  color of cells expressing abfA after staining with the substrate: no color change; also recorded: no blue staining
